This note sets out measurements from patent US20040024024A1, “Aromatic sulfone hydroxamates and their use as protease inhibitors” (priority 2001, published 2004).

Each structure is given as a SMILES string. pKi: −log10 of the molar value. Several values for one entry are separate records, joined by “and”; a condition that tells them apart may be missing. Equal values may be shown once. Where a name gives a salt, the structure may show the parent alone. Some results are limits rather than exact numbers.

The target in one experiment is T1, Human recombinant MMP-13 (Homo sapiens, UniProt P45452).
T1 construct: made in house; host or cells: baculovirus / insect cells
Briefly: In vitro MMP inhibition, Ki determination (fluorogenic substrate II). It counts as biochemical. As for the experimental part:
(§1) Several hydroxamates and salts thereof were analyzed in in vitro assays to determine their ability to inhibit the MMP cleavage of peptide substrates. Inhibition (Ki) and IC50 constants were calculated from the assayed hydroxamate-MMP interactions.
(§2) Human recombinant MMP-1, MMP-2, MMP-9, MMP-13, and MMP-14 were used in this assay. All enzymes were prepared in Assignee's laboratories following usual laboratory procedures. Protocols for the preparation and use of these enzymes are available in the scientific literature. See, e.g., Enzyme Nomenclature (Academic Press, San Diego, Calif., 1992) (and the citations therein). See also, Frije et al., J. Biol. Chem., 26(24), 16766-73 (1994).
The expressed proenzyme was first purified over a heparin agarose column, and then over a chelating zinc chloride column. The proenzyme was then activated by APMA for use in the assay. Further details on baculovirus expression systems may be found in, for example, Luckow et al., J. Virol., 67, 4566-79 (1993). See also, O'Reilly et al, Baculovirus Expression Vectors: A Laboratory Manual (W. H. Freeman and Co., New York, N.Y., 1992). See also, King et al., The Baculovirus Expression System: A Laboratory Guide (Chapman & Hall, London, England, 1992).
(§3) All MMPs were activated using 4-aminophenylmercuric acetate (“APMA”, Sigma Chemical, St. Louis, Mo.) or trypsin. MMP-9 also was activated using human recombinant MMP-3 (purified in Assignee's laboratory following standard cloning and purification techniques).
(§4) Two fluorogenic, methoxycoumarin-containing polypeptide substrates were used in the MMP inhibition assays:
(§5) MCA-ArgProLeuGlyLeuDpaAlaArgGluArgNH2 (II)
(§6) Here, “Dpa” is 3-(2,4-dinitrophenyl)-L-2,3-diaminopropionyl group, and “MCA” is 7-methoxycoumarin-4-yl acetyl. Substrate (I) was purchased from Baychem (Redwood City, Calif.), and substrate II was prepared Assignee's laboratory. Substrate I was used in the IC50 determination assays, while substrate II was used in the Ki determination assays. In the absence of MMP inhibitory activity, either substrate is cleaved at the Gly-Leu peptide bond. This cleavage separates the highly fluorogenic peptide from the 2,4-dinitrophenyl quencher, thus resulting in increase of fluorescent intensity.
(§7) The stock solutions of the assayed hydroxamates (or salts thereof) were prepared in 1% dimethyl sulfoxide (DMSO). These stock solutions were diluted in Buffer A (100 mM Tris-HCl, 100 mM NaCl, 10 mM CaCl2, 0.05% polyoxyethylene 23 lauryl ether, pH 7.5) to obtain solutions with different hydroxamate concentrations, i.e., assay solutions with different concentrations of the assayed MMP inhibitory compound. The experiment controls contained the same amount of Buffer A/DMSO as the assayed sample, but contained no hydroxamate (or salt thereof).
The assays from which the Ki determinations were made were performed as follows. The assayed hydroxamate samples were incubated in separate wells of untreated white polystyrene plates (Nunc Nalgene International, Rochester, N.Y.), and analyzed on a Tecan SpectraFlour Plus plate reader. The excitation wavelength was 330 nm, and the emission wavelength—420 nm. All samples (assayed hydroxamates and controls) were incubated in separate plate wells at room temperature for 1 hr in the presence of 4 μM of MMP substrate (II). In the absence of MMP inhibitory activity, substrate II was cleaved at the Gly-Leu bond resulting in an increase of relative fluorescence. Inhibition was observed as a reduced rate of this increase in relative fluorescence. The various hydroxamates were analyzed using a single low enzyme concentration with a single substrate concentration fixed at or below the Km. This protocol is a modification of method by Knight et al., FEBS Lett., 296(3), 263-266 (1992). Apparent inhibitory constants were determined by non-linear regression of reaction velocity as a function of inhibitor and enzyme concentration using Morrison's equation, as described by Kuzmic, Anal. Biochem. 286, 45-50 (2000). […]

Another experiment addresses T2, Human recombinant MMP-2 (Homo sapiens, UniProt P08253).
T2 construct: made in house; host or cells: MMP-2-transfected p2AHT2 cells
T2 sequence (P08253 110-660): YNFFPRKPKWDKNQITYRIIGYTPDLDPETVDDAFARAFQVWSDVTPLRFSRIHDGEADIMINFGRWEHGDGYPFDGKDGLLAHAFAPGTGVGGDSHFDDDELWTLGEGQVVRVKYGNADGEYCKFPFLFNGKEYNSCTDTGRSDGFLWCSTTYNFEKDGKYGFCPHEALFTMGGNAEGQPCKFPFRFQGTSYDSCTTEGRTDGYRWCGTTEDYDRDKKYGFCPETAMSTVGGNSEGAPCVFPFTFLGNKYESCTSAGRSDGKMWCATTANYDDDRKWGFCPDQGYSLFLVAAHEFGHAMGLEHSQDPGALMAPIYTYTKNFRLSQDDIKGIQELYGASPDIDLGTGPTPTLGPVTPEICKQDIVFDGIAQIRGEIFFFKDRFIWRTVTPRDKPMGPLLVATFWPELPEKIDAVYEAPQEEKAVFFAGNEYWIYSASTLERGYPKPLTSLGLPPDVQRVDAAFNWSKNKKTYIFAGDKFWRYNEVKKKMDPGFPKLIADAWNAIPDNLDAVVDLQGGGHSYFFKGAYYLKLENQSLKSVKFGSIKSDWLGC
Described as above. It counts as biochemical. On the procedure: as §1, §2
The MMP-2 proenzyme was purified by gelatin Sepharose chromatography from MMP-2-transfected p2AHT2 cells provided by Dr. Gregory Goldberg of Washington University (St. Louis, Mo.).
as §3, §4, §5, §6, §7
The assays from which the Ki determinations were made were performed as follows. The assayed hydroxamate samples were incubated in separate wells of untreated white polystyrene plates (Nunc Nalgene International, Rochester, N.Y.), and analyzed on a Tecan SpectraFlour Plus plate reader. The excitation wavelength was 330 nm, and the emission wavelength—420 nm. All samples (assayed hydroxamates and controls) were incubated in separate plate wells at room temperature for 1 hr in the presence of 4 μM of MMP substrate (II). In the absence of MMP inhibitory activity, substrate II was cleaved at the Gly-Leu bond resulting in an increase of relative fluorescence. Inhibition was observed as a reduced rate of this increase in relative fluorescence. The various hydroxamates were analyzed using a single low enzyme concentration with a single substrate concentration fixed at or below the Km. This protocol is a modification of method by Knight et al., FEBS Lett., 296(3), 263-266 (1992). Apparent inhibitory constants were determined by non-linear regression of reaction velocity as a function of inhibitor and enzyme concentration using Morrison's equation, as described by Kuzmic, Anal. Biochem. 286, 45-50 (2000). […] Since the substrate concentration was chosen to be at or below the Km, the apparent Ki's from this analysis were reported as Ki's without correction for the influence of substrate.

Where [1] appears, read: substrate (II) 4 μM, 1 hr room temperature, apparent Ki, values in parenthesis.

Consider `O=C(NO)C1(S(=O)(=O)c2ccc(OCCCc3nc(-c4ccc(OC(F)(F)F)cc4)no3)cc2)CCOCC1` [Example 31, tetrahydro-N-hydroxy-4-[[4-[3-[3[4-(trifluoromethoxy)phenyl]-1,2,4-oxadiazol-5-yl]propoxy]phenyl]sulfonyl]-2H-pyran-4-carboxamide], for which the pKi at Human recombinant MMP-13 (setting [1]) was 8.82; at Human recombinant MMP-2 (setting [1]), 6.38.
Regarding `O=C(NO)C1(S(=O)(=O)c2ccc(OCCCc3cccc(-c4ccc(F)cc4)c3)cc2)CCOCC1` [Example 39], the pKi is 8.52 on Human recombinant MMP-13 (setting [1]) and 5.79 on Human recombinant MMP-2 (setting [1]).
In the same order, the values of `O=C(NO)C1(S(=O)(=O)c2ccc(OCCc3cccc(-c4ccccn4)c3)cc2)CCOCC1` [Example 40] are 9.24 and 6.67.
On the same counts, the results for `CCN1CCC(C(=O)NO)(S(=O)(=O)c2ccc(OCCCc3nc(-c4ccc(OC(F)(F)F)cc4)no3)cc2)CC1` [Example 41, 1-ethyl-N-hydroxy 4-{[4-(3-{3-[4-(trifluoromethoxy)phenyl]-1,2,4-oxadiazol-5-yl}propoxy)phenyl]sulfonyl}piperidine-4-carboxamide Hydrochloride] are 8.98 and 6.38.
On the same counts, the results for `COCCN1CCC(C(=O)NO)(S(=O)(=O)c2ccc(OCCCc3nc(-c4ccc(OC(F)(F)F)cc4)no3)cc2)CC1` [Example 42] are 9.31 and 6.73.
In the case of `CCN1CCC(C(=O)NO)(S(=O)(=O)c2ccc(OCCCc3cccc(-c4ccccc4)c3)cc2)CC1` [Example 46], the negative logarithm of the Ki (pKi) on Human recombinant MMP-13 (setting [1]) is 8.64; on Human recombinant MMP-2 (setting [1]), 6.10.
`COCCN1CCC(C(=O)NO)(S(=O)(=O)c2ccc(OCCCc3cc(-c4ccc(F)cc4F)cs3)cc2)CC1` [Example 47, 4-[(4-{3-[4-(2,4-difluorophenyl)thien-2-l]propoxy}phenyl)sulfonyl]-N-hydroxy-1-(2-methoxyethyl)piperidine-4-carboxamide Hydrochloride]: the pKi at Human recombinant MMP-13 (setting [1]) is 9.52 and 9.37; on Human recombinant MMP-2 (setting [1]) it was 7.72 and 7.33.
Regarding `COCCN1CCC(C(=O)NO)(S(=O)(=O)c2ccc(OCCCn3nnc(-c4ccc(OC(F)(F)F)cc4)n3)cc2)CC1` [Example 48], the pKi on Human recombinant MMP-13 (setting [1]) is 9.90; on Human recombinant MMP-2 (setting [1]), 6.64.
As for `O=C(NO)C1(S(=O)(=O)c2ccc(OCCCn3nnc(-c4ccc(OC(F)(F)F)cc4)n3)cc2)CCN(C2CC2)CC1` [Example 49], the pKi is 9.36 on Human recombinant MMP-13 (setting [1]) and 6.36 at Human recombinant MMP-2 (setting [1]).
For `O=C(NO)C1(S(=O)(=O)c2ccc(OCCCc3nc(-c4ccc(OC(F)(F)F)cc4)no3)cc2)CCN(C2CC2)CC1` [Example 51, 1-cyclopropyl-N-hydroxy-4-{[4-(3-{3-[4-(trifluoromethoxy)phenyl]-1,2,4-oxadiazol-5-yl}propoxy)phenyl]sulfonyl}piperidine-4-carboxamide Hydrochloride], the pKi is 8.77 at Human recombinant MMP-13 (setting [1]) and 7.03 at Human recombinant MMP-2 (setting [1]).
`O=C(NO)C1(S(=O)(=O)c2ccc(OCCCn3nnc(-c4ccc(OC(F)(F)F)cc4)n3)cc2)CCN(CC2CC2)CC1` [Example 53]: the pKi on Human recombinant MMP-13 (setting [1]) was 9.18; on Human recombinant MMP-2 (setting [1]), 6.16.
With `NC(=O)c1cccc(OCCOc2ccc(S(=O)(=O)C3(C(=O)NO)CCOCC3)cc2)c1` [Example 54], on Human recombinant MMP-2 (setting [1]), the negative-log Ki (pKi) is 7.19.
For the molecule `CC(C)C(=O)c1cccc(CCCOc2ccc(S(=O)(=O)C3(C(=O)NO)CCOCC3)cc2)c1` [Example 95], the pKi on Human recombinant MMP-2 (value in parenthesis) was 6.83.
`O=C(NO)C1(S(=O)(=O)c2ccc(OCCCc3cccc(-c4ccco4)c3)cc2)CCOCC1` [Example 97]: the results for the pKi at Human recombinant MMP-13 (value in parenthesis) and on Human recombinant MMP-2 (value in parenthesis) were 8.25 and 6.53, respectively.
Turning to `O=C(NO)C1(S(=O)(=O)c2ccc(OCCCc3cccc(Cc4ccccc4)c3)cc2)CCOCC1` [Example 98], the pKi was 8.04 at Human recombinant MMP-13 (value in parenthesis) and 6.20 at Human recombinant MMP-2 (value in parenthesis).
For `CC(C)c1ccc(-c2cccc(CCCOc3ccc(S(=O)(=O)C4(C(=O)NO)CCOCC4)cc3)c2)cc1` [Example 160], the pKi on Human recombinant MMP-2 (value in parenthesis) was < 5.00.
For `O=C(NO)C1(S(=O)(=O)c2ccc(OCCCc3cncc(Br)c3)cc2)CCOCC1` [Example 522], the pKi at Human recombinant MMP-2 (value in parentheses) was 7.49.
Turning to `CCN1CCC(C(=O)NO)(S(=O)(=O)c2ccc(OCCCSc3nc4ccccc4s3)cc2)CC1` [Example 591], at Human recombinant MMP-13 (value in parentheses), the pKi is 9.72.

By pKi is commonly meant the negative decadic logarithm of the Ki, by convention in mol/L.
